In a melting point compilation (Tetko et al.; mined from patent text by program, amines drawn as free bases though some values may be those of a salt):

| melting point [°C] | Structure (SMILES) |
| --- | --- |
| 145 to 146 | COC(=O)c1oc2c(sc3ccccc32)c1OC |
| 198 to 200 | CNC(=O)C(Cc1ccc(O)cc1)NC(=O)Nc1n[nH]c(=S)s1 (stereo not given) |
| 100 to 102 | COCCN(CC1=CCC(N)(Oc2ccccc2)C=C1)C(=O)C(Cl)Cl (stereo not given) |
| 178 to 180 | COc1cc2cc(CC(C)(C(N)=O)c3ccc(C#N)cc3)sc2cc1OC (stereo not given) |
| 182 to 183 | CC(=O)Nc1ccc(S(N)(=O)=O)cc1[N+](=O)[O-] |
| 107 to 108 | NC(=O)CCc1ccc(F)cc1F |
| 159 to 162 | COc1cc(NC(N)=S)c(Cl)c(OC)c1 |
| 205 to 206 | CCC1(CC(=NNc2ccc([N+](=O)[O-])cc2[N+](=O)[O-])C(=O)OC)CCCN2CCc3c([nH]c4ccccc34)C21 (stereo not given) |
| 87 to 89 | N#CC1CC(=O)c2cc(F)ccc2O1 (stereo not given) |
| 287 to 289 | O=c1[nH]cnc2nn(C3CCCCC3)cc12 |
| 69 to 70 | COc1ccc(COC(=O)CCc2nc(-c3ccc(Cl)cc3)co2)cc1 |
| 203 to 205 | CNC(=O)NC1=NC(=CCC(=O)Nc2ccc(Cl)cc2)CS1 |
| 80 | COC(=O)Cc1ccc(CNC(=O)C2Cc3c(OC)cccc3N2S(=O)(=O)c2ccc(-c3cccc(C(F)(F)F)c3)cc2)cc1 (stereo not given) |
| 103 | C=C(CS(=O)(=O)c1ccc(C)cc1)c1ccccc1 |
| 203 to 205 | CC(C)OC(=O)c1cc(-n2c(=O)[nH]c3c(c2=O)CCCC3)c(F)cc1Cl |
| 115 | CC(C)(C)OC(=O)NCC1CCc2cc(C=O)ccc2C1 (stereo not given) |
| 213 to 215 | CC(C)OC(=O)c1cc(-n2c(=O)[nH]c3c(c2=O)CCO3)c(F)cc1Cl |
| 213 to 214 | O=C1c2ccccc2C(=O)N1CC(O)Cn1ccnc1[N+](=O)[O-] (stereo not given) |
| 70 to 73 | Fc1cc(F)nc(NCc2ccccc2)n1 |
| 90 to 93 | Cc1cccc2c1CCC2NC(=S)NCCO (stereo not given) |
| 173 to 175 | Cc1ccc(NCC2CCN(C3CCCC3)CC2)c(C(=O)Nc2ccc(Cl)cn2)c1 |
| 117 to 118 | CC1=C(c2ccccc2)C(=O)N(C(C)(C)c2cccc(Cl)c2)CC1 |

| melting point [°C] | Structure (SMILES) |
| --- | --- |
| 140 to 145 | CC(CC(F)(F)F)C(=O)Nc1cnn(-c2cccnc2)c1 (stereo not given) |
| 146 to 149 | CCc1nc(NC)sc1-c1ccncc1 |
| 97 to 98 | O=C(Nc1ccccc1)C(Br)(Br)Br |
| 137 to 138 | O=S(=O)(NCCCCCOc1ccc(-n2ccnc2)cc1)c1ccc(Br)cc1 |
| 193 to 195 | O=c1[nH]c2ccccc2c(=O)n1CCS |
| 144 to 146 | CCSc1ccc2c3c(cccc13)C(=O)N2 |
| 206 to 207 | Fc1ccc(F)c(-c2coc3ccc(-c4nnc(S)o4)cc23)c1 |
| 98 to 99 | Clc1[nH]c2ccccc2c1Sc1ccccc1 |
| 72 to 73 | Cc1cc(OCCCC(=O)N(CCCCO)C2CCCCC2)cc(C=O)c1[N+](=O)[O-] |
| 220 to 221 | Cc1cc(-c2nc3cccnn3c2-c2ccnc(NC(=O)CC(F)(F)F)c2)ccc1F |
| 102 to 104 | CCn1c(CCSC)nc(N2CCc3ccccc3CC2)c(C#N)c1=O |
| 79 to 80 | COc1cc(C(=O)c2ccc(OCc3ccccc3)cc2N)cc(OC)c1OC |
| 179 to 181 | Fc1cccc(CNC(=S)N2CCc3c([nH]c4ccccc34)C2c2ccc3c(c2)OCO3)c1 (stereo not given) |
| 192 to 193 | CCOC(=O)c1cc2cc(OC(F)(F)F)cc(NS(=O)(=O)c3cccs3)c2[nH]1 |
| 124 to 126 | O=C(O)Cc1ccccc1Cc1nc2c(F)c(F)cc(F)c2s1 |
| 140 | c1ccc(-c2ccnc3ncnn23)cc1 |
| 186 to 188 | Cc1csc2c(CS(=O)c3nc4ccccc4[nH]3)nccc12 (stereo not given) |
| 100 to 102 | CCN(CC)C(=O)c1ccc(C(=O)N2CCN(c3ncccc3NC(C)C)CC2)nc1 |
| 187 to 188 | COc1ccc(C(=O)Nc2ccccc2)cc1Nc1ccc(C)cc1 |
| 178 to 180 | CC(C)(C)C(NC(=O)c1ccc(Cl)cc1)NC(=NC#N)NCc1cccc(Cl)c1 (stereo not given) |
| 125 to 128 | CCC1(C)CC(NC(=O)c2cccc([N+](=O)[O-])c2O)CC(C)(C)C1 (stereo not given) |

Further lines, the compound ahead of its results:

| Structure (SMILES) | melting point [°C] |
| --- | --- |
| O=C(CCCCl)Nc1nnc(-c2ccccc2)s1 | 159 to 162 |
| COc1ccc2c(c1)C(c1ccc(O)cc1)c1c-2ccc2cc(OC)ccc12 (stereo not given) | 196 to 199 |
| ClCCOc1ccc(Br)cc1 | 54 to 56 |
| CN(C)CC(c1ccc(OC(=O)c2ccccc2)cc1)C1(OC(=O)c2ccccc2)CCCCC1 (stereo not given) | 128 to 130 |
| CCOC(=O)c1ccc(NC(=O)CNc2ccccc2F)cc1 | 169 to 170 |
| CN1CCc2cc([N+](=O)[O-])c(O)cc2C(c2ccc3c(c2)CCC3)C1 (stereo not given) | 58 to 63 |
| CCCc1cc2ccccn2c1C(C)=O | 71 to 72 |
| C#CCOc1cc(NN=C2CCCCN2C(=O)OC)c(Cl)cc1Cl | 137 to 138 |
| CC(C)n1nc(-c2c(-c3ccccc3)nn3ccc(C(=O)NC4CC4)cc23)ccc1=O | 184 to 185 |
| CC(Oc1ccc(-c2ccc(-c3c(Cc4ccccc4)oc4ccccc34)cc2)cc1)C(=O)O (stereo not given) | 112 to 114 |
| CC(C)C(C)(C)NC(N)=O | 175 to 176 |
| CC[C@H](COC)n1cc(Cl)nc(N2CCc3cc(OC)cc(C)c32)c1=O | 62 to 64 |
| CC(=O)Nc1c(CC(=O)O)cccc1Oc1ccccc1 | 155 to 156 |
| CCOC(Cc1ccc(NCCCC2=CCC(NS(C)(=O)=O)(OC(C)(C)C)C=C2)cc1)C(=O)O (stereo not given) | 78 to 80 |
| O=C(NCC1Cc2ccccc2C1)OCc1ccccc1 | 87 to 89 |
| COCOc1cc2c(cc1-c1cc(C=CC(=O)O)ccc1O)C(C)(C)CCC2(C)C | 101 to 103 |
| CC(C)CN1CCn2c1nc1[nH]cnc1c2=O | 233 to 237 |
| CC(O)C1(C)COC(c2ccc(F)cc2)OC1 (stereo not given) | 78 |
| COc1cc(CCN)ccc1O | 156 to 158 |
| N#Cc1cnn(-c2ccc(C=O)cc2)n1 | 148 to 150 |
| Clc1ccc(-n2nc3c(c2Br)CCCC3)cc1 | 101 to 102 |

| Structure (SMILES) | melting point [°C] |
| --- | --- |
| CSc1nsc(NC(=O)C(C)(C)C)c1C(N)=O | 142 to 143 |
| Cc1oc(-c2ccccc2)nc1COc1ccccc1COc1ccc(CC(=O)O)cc1 | 173 to 174 |
| CCOC(=O)c1cccc(CNC(=O)CCCCCNC(=O)OC(C)(C)C)c1O | 120 to 121 |
| CC12CCC(=O)C=C1CCN(Cc1ccccc1)C2 (stereo not given) | 98 |
| Nc1cccc(CCO)c1 | 61 to 64 |
| COc1ccc(C(=O)C(=O)c2cccc(-c3ccc(S(C)(=O)=O)cc3)c2-c2ccccc2)cc1OC | 181 to 183 |
| CCOCc1nc2c(N)nc(C)c(C)c2n1CCNC(=O)Nc1ccccc1 | 110 |
| O=c1oc(-c2cccc(Cl)c2)ns1 | 83 to 84.5 |
| CCOCc1nc2cnc3cc(-c4ccccc4)ccc3c2n1CC1CCN(C(=O)OC(C)(C)C)CC1 | 166 to 167 |
| Cc1cn(C(C(=O)N(C)C)c2ccccc2)nc1-c1ccccc1 (stereo not given) | 136 to 138 |
| Cn1nc(Nc2cc(Cl)n[nH]c2=O)cc1CN1CCC1 | 140 to 141 |
| O=S(=O)(c1ccc(F)cc1)N1CCC(Nc2nc(OCC(F)(F)F)nc(-c3ccc(F)cc3)n2)CC1 | 183 to 185 |
| CC1CC(=O)c2c(OS(=O)(=O)c3cccs3)ccc(-c3nccs3)c2C1 (stereo not given) | 111 to 113 |
| O=C1CCCC(=NNc2ccccc2)C1 | 187 to 189 |
| CCCC1=C([N+](=O)[O-])C(c2ccccc2Br)c2c[nH]nc2N1 (stereo not given) | 226 |
| Cc1ccc(C(=O)CC2CCCN(C)C2)cc1 (stereo not given) | 70 to 74 |
| COP(=O)(OC)C(CCc1cc(C)nc2c(C#N)c(C)nn12)P(=O)(OC)OC | 100 to 101 |
| COc1cc(C(Cl)(Cl)Cl)cc(OC)n1 | 71 to 73 |
| CCc1noc(-c2cccc3c2C(=O)N(C)Cc2c(-c4nc(CC)no4)ncn2-3)n1 | 173 to 174 |
| C=C(COC(=O)Oc1ccc([N+](=O)[O-])cc1)C(=O)OCC | 42 to 43 |
| CC(C)(C)c1cc(C=Cc2ccccc2NC(=O)NCc2ccccn2)cc(C(C)(C)C)c1O | 207 to 210 |

| Structure (SMILES) | melting point [°C] |
| --- | --- |
| CCCCc1nn(-c2cc([N+](=O)[O-])ccc2Cl)c(C(=O)O)c1Cc1ccc(Br)cc1F | > 55 |
| C=CCN(C1CCN(C)CC1)S(=O)(=O)c1ccc(Nc2nccc(Nc3ccc(F)cc3)n2)cc1 | 167 |
| Cc1ccc(S(=O)(=O)C(CCl)Sc2ccc(Br)cc2)cc1 (stereo not given) | 82.5 to 84 |
| O=C1N(C2CCCCC2)CC(CO)C1(c1ccccc1)c1ccccc1 (stereo not given) | 148 to 150 |
| CCn1c(=N)c(-c2ccsc2)cc2cnc(Nc3ccccc3)nc21 | 220 to 222 |
| O=C(Nc1c(Cl)cncc1Cl)c1ccc(OCC2CC2)c2oc3ccccc3c12 | 242 |
| CCCC(Cl)(Cl)C(NC(=O)c1ccc(Cl)cc1)NC(=NC#N)Nc1cccnc1 (stereo not given) | 192 to 193 |
| COC(=O)C(=CNc1ncnc2ccc(NC(=O)C(C)(C)C)cc12)C(=O)OC | 189 to 190 |
| CC(O)(c1nc2ccc(S(=O)(=O)c3ccccc3)cc2c(=O)[nH]1)C(F)(F)F (stereo not given) | 202 to 204 |
| COc1cc(C#N)ccc1-c1cc(-c2ccc(C#N)cc2)on1 | 243 to 244 |
| CN1C(=O)CN=C(c2ccccc2)c2cc(NO)ccc21 | 211 to 213 |
| CC(C)Oc1cc(NNC(=N)C(F)(F)F)c(Cl)cc1Cl | 80.5 to 81 |
| c1ccc(OC(Oc2cccc3ccccc23)Oc2cccc3ccccc23)cc1 | 88.5 to 90 |
| N#Cc1cccc(-c2ccc(OC[C@@H](O)CCc3cccnc3)cc2)c1 | 74 to 75 |
| CN(C)c1n[nH]c(=O)n1N(C)C | 93 |
| Cc1nnc(-c2ccc3occ(-c4cnco4)c3c2)o1 | 184 to 185 |
| CCN(c1cccc2cc(C(N)=S)[nH]c12)S(=O)(=O)c1cccs1 | 163 |
| Cc1cc(C)nc(OC(C)C(=O)NS(=O)(=O)c2ccccc2)n1 (stereo not given) | 188 |
| NC(=O)c1nc(C2OC(CO)C(O)C2O)n[nH]1 (stereo not given) | 193 to 195 |
| CN1Cc2c(-c3noc(CCl)n3)ncn2-c2cccc(F)c2C1=O | 206 |
